Measurements reported in PubChem BioAssay (NCI).
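Following 48 hours of exposure in 96-well plates, responses at five concentrations were used to interpolate endpoints linearly. GI50 is the concentration that inhibits growth by half. The concentration for full growth arrest is given as TGI.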 Where a SMILES comes first, the peptide text is derived from it. Bridges are numbered along the chain shown (N, C = ends). The star is where a group is joined. Cbz = O=C(OCc1ccccc1)*

Columns and labels:
Experiment in all cases: growth of human tumour cells (NCI), 48 h
[1] = tested on: NCI-H522 lung
[2] = tested on: SW-620 colon
[3] = tested on: SK-MEL-2 melanoma
[4] = tested on: HCC-2998 colon
[5] = tested on: NCI-H460 lung
[6] = tested on: SF-539 CNS
[7] = tested on: MOLT-4 leukemia
[8] = tested on: OVCAR-3 ovarian
[9] = tested on: TK-10 renal
[10] = tested on: RXF 393 renal

Structure (SMILES) | TGI [1] [µM] | TGI [2] [µM] | TGI [3] [µM] | TGI [4] [µM] | TGI [5] [µM] | TGI [6] [µM] | TGI [7] [µM] | TGI [8] [µM] | TGI [9] [µM] | TGI [10] [µM] | GI50 [4] [µM] | GI50 [5] [µM]
CCOC(=O)C(NC(=O)CC)(Nc1ccc(S(=O)(=O)Nc2nc(C)cc(C)n2)cc1)C(F)(F)F (stereo not given) | > 100 | > 100 | > 100 | > 100 | > 100 | > 100 | > 100 | > 100 | > 100 | > 100 | – | –
CCC(=O)NC(OCC1(CC)COC1)(C(F)(F)F)C(F)(F)F | > 100 | – | > 100 | > 100 | > 100 | > 100 | > 100 | > 100 | > 100 | > 100 | – | –
Cc1cc(S(=O)(=O)Nc2nc3ccccc3n2-c2ccccc2)c(S)cc1Cl | > 100 | > 100 | > 100 | > 100 | > 100 | > 100 | > 100 | > 100 | – | > 100 | – | –
CCN1CCCC(Nc2cc(C)nc(/N=C(/N)Nc3ccc(Cl)c(Cl)c3)n2)C1 (stereo not given) | 2.61 | – | 4.04 | 1.89 | 2.93 | 3.66 | 2.42 | 3.59 | 3.22 | – | – | –
COc1nc(OC)nc(-c2cccc(F)c2)n1 | 42.4 | 40.6 | 38.6 | 28.2 | 32.9 | 32.5 | > 100 | 27.7 | 33.1 | 35 | – | –
COC1=CC(=O)c2c(O)c3c(c(O)c2C1=O)C[C@](C)(O)C[C@@H]3O | 12.4 | 14 | 14.3 | 10.7 | 6.84 | 9.89 | 31.4 | 5.29 | 64.3 | 17.3 | – | –
COc1cc(OC)c2c(O)c(S(=O)(=O)c3ccc(C)cc3)c(=O)oc2c1 | > 100 | > 100 | > 100 | > 100 | > 100 | > 100 | > 100 | > 100 | > 100 | > 100 | – | –
COC(=O)C1CCCCNC(=O)CCC(NC(=O)OCc2ccccc2)C(=O)N1 (stereo not drawn) (Cbz-Glu-Lys-OMe; lactam 1-2; configuration not given here) | > 100 | > 100 | > 100 | – | > 100 | > 100 | > 100 | > 100 | > 100 | > 100 | – | –
Oc1ccc(Cl)cc1C1=N/C(=N\C/N=C2\N=C(c3cc(Cl)ccc3O)CC(c3ccccc3)N2)NC(c2ccccc2)C1 (stereo not given) | – | > 100 | > 100 | > 100 | > 100 | > 100 | – | > 100 | > 100 | > 100 | – | –
Cc1ccc(SC[C@@]2(C(F)F)NC(=O)NC2=O)cc1 | > 100 | > 100 | > 100 | > 100 | > 100 | – | > 100 | > 100 | > 100 | > 100 | – | –
Cn1c2c(c3ccccc31)CCN1C(=O)C3SC21C1C(=O)N(c2ccccc2)C(=O)C31 (stereo not given) | > 100 | > 100 | – | > 100 | > 100 | > 100 | > 100 | > 100 | > 79.1 | > 100 | > 100 | 90.6
C[C@@H]1CC[C@@H](C)[C@](C)(CCc2ccoc2)C/C=C\C=C/1C(=O)O | – | > 50 | > 50 | > 50 | > 50 | > 50 | > 50 | > 50 | > 50 | > 50 | – | –
O=c1[nH]cnc2sc(=S)c3c(c12)CCC3 | 41.8 | 49.2 | > 100 | – | > 100 | > 100 | 41.2 | 53.2 | 61.9 | 63.4 | – | –
Cc1ccnc(NC(=S)Nc2cccc(Cl)c2)c1 | 9.85 | > 100 | > 100 | – | > 100 | > 100 | > 100 | > 100 | > 100 | > 100 | – | –
CCOP(=O)(OCC)C1(O)CC(n2cc(C)c(=O)[nH]c2=O)OC1CO (stereo not given) | > 100 | > 100 | > 100 | > 100 | > 100 | > 100 | – | > 100 | > 100 | > 100 | – | –
COc1cccc(NC(=O)CC(=O)NNCC(=O)Nc2nnc(-c3ccc(N(CCC#N)S(=O)(=O)c4ccccc4)cc3)s2)c1 | > 100 | > 100 | > 100 | > 100 | – | > 100 | > 100 | > 100 | > 100 | > 100 | – | –
N#Cc1c(Nc2nc3ccccc3s2)c2ccccc2n2c1nc1ccccc12 | > 100 | > 100 | > 100 | > 100 | > 100 | > 100 | > 100 | > 100 | > 100 | – | – | –
O=C1CCC2(O)C3Cc4ccc(Oc5nnnn5-c5ccccc5)c5c4C2(CCN3CC2CC2)C1O5 (stereo not given) | 61.6 | > 100 | 53.1 | – | > 100 | – | > 100 | > 100 | > 100 | > 100 | – | –
O=S(=O)(O)c1cc(O)c2c(O)c(N=Nc3cccc4ccccc34)c(S(=O)(=O)O)cc2c1 | > 100 | > 100 | > 100 | – | – | > 100 | > 100 | > 100 | > 100 | > 100 | – | –
CSc1nc(C#N)c(N)n1C | > 100 | > 100 | > 100 | – | > 100 | > 100 | > 100 | > 100 | > 100 | > 100 | – | –
CSc1ncc2c(n1)-c1ccccc1OC2NC(C)(C)C (stereo not given) | 74.5 | > 100 | – | 87 | > 100 | > 100 | > 100 | > 100 | > 100 | > 100 | – | –
CN(C)C(=O)C(F)(F)C(c1ccc(Br)cc1)C1C(=O)N(C)C(=O)N(C)C1=O (stereo not given) | – | > 100 | > 100 | > 100 | > 100 | – | – | > 100 | > 100 | > 100 | – | –
OC(CCN1CCN(CCOC(c2ccccc2)c2ccccc2)CC1)c1ccc(Br)cc1 (stereo not given) | 29.4 | 44.5 | 25.6 | 3.96 | 26 | 27.6 | – | 28 | 26.9 | 22.9 | – | –

Structure (SMILES) | TGI [1] [µM] | TGI [2] [µM] | TGI [3] [µM] | TGI [4] [µM] | TGI [5] [µM] | TGI [6] [µM] | TGI [7] [µM] | TGI [8] [µM] | TGI [9] [µM] | TGI [10] [µM] | GI50 [4] [µM] | GI50 [5] [µM]
CC(C)(C)OC(=O)NCC(=O)NC1C/C(=N\O)c2sccc21 (stereo not given) | – | > 100 | > 100 | > 100 | > 100 | > 100 | > 100 | > 100 | > 100 | > 100 | – | –
CC(=O)c1ccc(N2CCN(C3=CC(=O)c4c(O)ccc(O)c4C3=O)CC2)cc1 | – | > 100 | – | > 100 | > 100 | > 100 | > 100 | > 100 | > 100 | > 100 | – | –
Clc1nc(Nc2nc3ccccc3[nH]2)nc(Cl)c1Cc1ccccc1 | > 100 | > 100 | > 100 | – | > 100 | > 100 | > 100 | – | > 100 | > 100 | – | –
CCCCc1ccc(-n2sc3ncccc3c2=O)cc1 | 8.4 | 72.1 | 43.9 | 33.7 | 26 | 41 | 57.7 | 42.5 | 27.4 | – | – | –
COc1cc(/C=C2\Cc3cc(OC)c(OC)cc3C2=O)cc(OC)c1 | > 100 | > 100 | > 100 | – | 74.7 | > 42.7 | > 100 | > 100 | > 100 | 57.1 | – | –
CN1Cc2c(nc(-c3ccc(Br)cc3)c[n+]2[O-])N(C)C1 | > 100 | > 100 | > 100 | – | > 100 | > 100 | > 100 | > 100 | – | > 100 | – | –
COc1ccc(/C(=N/Nc2nc3ccccc3[nH]2)C(=O)O)cc1 | > 100 | > 100 | > 100 | > 100 | > 100 | > 100 | > 100 | > 100 | > 100 | – | – | –
Oc1nc(N/N=C/c2ccccc2)[nH]c1/C=C1\C=Nc2ccccc21 | > 100 | > 100 | > 100 | – | > 100 | > 100 | > 100 | > 100 | > 100 | > 100 | – | –
Nc1ccc(-c2nc3ccc(F)cc3s2)cc1 | > 100 | > 100 | 39.6 | 45.3 | > 100 | > 100 | > 100 | 64.4 | 78.8 | – | 17.8 | 24.4
Cc1nn(C)c2nc3ccc(Cl)cc3c(-c3ccccc3)c12 | > 100 | > 100 | > 100 | > 100 | > 100 | > 100 | > 100 | > 100 | – | > 100 | – | –
N#CC12C(=O)N3C(=NC(c4ccccc4)NC3c3ccccc3)C1(C#N)C(c1ccccc1)NC1=C2CCCC1 (stereo not given) | > 100 | > 100 | > 100 | > 100 | > 100 | – | > 100 | > 100 | > 100 | > 100 | – | –
ONC1=Nc2ccccc2OCc2cc(Br)c(Br)cc2COc2ccccc2N=C1NO | 41.9 | > 48.3 | 38.7 | 31.8 | 30.2 | – | > 31.3 | > 48.1 | > 59.6 | 47.9 | – | –
COc1cc(/C=N\NC(=O)C[N+](C)(C)C)cc(OC)c1OC | > 10 | > 10 | – | > 10 | – | > 10 | > 10 | > 10 | > 10 | – | – | –
Cc1c(C#N)c2nnn(-c3ccccc3)c(=O)n2c1-c1ccccc1 | – | > 100 | > 72.9 | > 39.4 | > 76.6 | – | 30.5 | 16.2 | > 100 | > 24.2 | – | –
COc1cc(OC)cc(-n2c(N)c(-c3nc4ccccc4n3C)c3ccc([N+](=O)[O-])cc3c2=O)c1 | > 100 | > 100 | > 100 | > 100 | > 100 | – | – | – | > 100 | – | – | –
C/C=C/[C@H]1O[C@@](O)([C@@H](C)[C@H](O)[C@H](C)[C@H]2OC(=O)/C(OC)=C/C(C)=C/[C@@H](C)[C@@H](O)[C@@H](CC)[C@@H](O)[C@H](C)C/C(C)=C/C=C/[C@@H]2OC)C[C@H](OC2CC(O)C(OC(N)=O)C(C)O2)[C@@H]1C (stereo not given in full) | 7.39 | 15.3 | 3.22 | 18.6 | 14.4 | – | – | 17.2 | 31.7 | 37 | – | –
COC(=O)C1=C(C)N(NC(=O)c2ccccc2)C2(O)CCCC(=O)C12C (stereo not given) | > 100 | > 100 | > 100 | – | – | > 100 | – | > 100 | > 100 | > 100 | – | –
O=C1c2ccccc2-c2nc(-c3ccccc3)cc3c2c1nc1ccccc13 | – | 36.6 | 51.4 | 26.7 | – | – | 36.4 | 2.43 | 42.5 | > 100 | – | –
COc1ccc2c(c1OC)C(=O)O[C@@H]2[C@H]1c2cc3c(cc2CCN1C)OCO3 | > 100 | > 100 | > 100 | > 100 | > 100 | > 100 | > 100 | > 100 | > 100 | – | – | –
N#CC1(c2ccccc2)CCN(C2(c3ccccc3)CCCCC2)CC1 | – | > 100 | > 100 | > 100 | – | – | > 100 | > 100 | > 100 | > 100 | – | –
O=c1[nH]c2cc3cccnc3c(Cl)c2nc1CBr | 28.5 | 32.5 | – | – | 39.7 | 26.4 | > 100 | 35.5 | 61.8 | 34.6 | – | –
COc1cc2c(cc1C)NC(=O)/C2=C\c1ccncc1 | 9.53 | > 100 | 10.1 | 30 | 41.7 | 8.45 | – | 10.3 | 21.4 | 13.4 | – | –
